Reference: patent publication US20250171457A1, “NITROGEN-CONTAINING HETEROCYCLIC COMPOUND HAVING NRF2 ACTIVATION EFFECT” (CHUGAI SEIYAKU KABUSHIKI KAISHA, priority 2022, published 2025)

Each compound was assayed on Nrf2 transcriptional activity (pARE-Luc reporter) in HepG2 cells (assay: In vitro Nrf2 transcriptional activity measurement by ARE-dependent reporter assay in HepG2 cell). Settings: Homo sapiens; HepG2 cells transfected with pARE-Luc, 4 hours at 37° C.; luciferase activity of Example 1-54 or Example 17-23 at 3.75 μM defined as 100%.
Assay type: cell-based, human
Protocol: Test Example 1: In Vitro Nrf2 Transcriptional Activity Measurement by ARE-Dependent Reporter Assay in HepG2 Cell
A human liver cancer-derived cell line HepG2 was transfected with pGL4.37 vector (pARE-Luc, Promega Corp.) and incubated overnight at 37° C. in a humidified atmosphere containing 5% CO2. The cells were dissociated by trypsin treatment, inoculated to a 384-well plate supplemented with a test compound, and incubated at 37° C. for 4 hours. Then, Bright-Glo Reagent (Promega Corp.) was added to the plate, and luciferase activity was measured with Envision plate reader.
Luciferase activity obtained through the action of the compound of Example 1-54 or Example 17-23 at a concentration of 3.75 μM was defined as 100%. The luciferase activity of each well was converted to a response rate (%). The dose-response curve of the compound of each Example was prepared to calculate a 50% effective concentration (EC50).
Compound `Cn1ncc2cc(-c3cc(Cl)c(C(=O)N4COc5c(cccc5-c5cc(N6C7CCC6COC7)c(C(=O)O)cc5F)C4)c(Cl)c3)cnc21` [Compound 3-14, 4-[3-[2,6-Dichloro-4-(1-methylpyrazolo[3,4-b]pyridin-5-yl)benzoyl]-2,4-dihydro-1,3-benzoxazin-8-yl]-5-fluoro-2-(3-oxa-8-azabicyclo[3.2.1]octan-8-yl)benzoic acid] has an EC50 of 8.8 nM.
`Cn1cc(-c2cc(Cl)c(C(=O)N3COc4c(cccc4-c4ccc(C(=O)O)c(N5CCC(F)(F)CC5)c4)C3)c(Cl)c2)cn1` [Compound 14-3, 4-[3-[2,6-Dichloro-4-(1-methylpyrazol-4-yl)benzoyl]-2,4-dihydro-1,3-benzoxazin-8-yl]-2-(4,4-difluoropiperidin-1-yl)benzoic acid] showed an EC50 of 12 nM.
`O=C(O)c1cc(F)c(-c2cccc3c2OCN(C(=O)c2c(Cl)cc(N4CC(N5CC(OC(F)F)C5)C4)cc2Cl)C3)cc1N1C2CCC1COC2` [Compound 11-4, 4-[3-[2,6-Dichloro-4-[3-[3-(difluoromethoxy)azetidin-1-yl]azetidin-1-yl]benzoyl]-2,4-dihydro-1,3-benzoxazin-8-yl]-5-fluoro-2-(3-oxa-8-azabicyclo[3.2.1]octan-8-yl)benzoic acid] gave an EC50 of 2 nM.
In the case of `Cn1cc(-c2cc(Cl)c(C(=O)N3CNc4c(cccc4-c4cc(N5CCOCC5)c(C(=O)O)cc4F)C3)c(Cl)c2)cn1` [Compound 18-8, 4-[3-[2,6-Dichloro-4-(1-methylpyrazol-4-yl)benzoyl]-2,4-dihydro-1H-quinazolin-8-yl]-5-fluoro-2-morpholin-4-ylbenzoic acid], the EC50 is reported as 2.8 nM.
`O=C(O)c1cc(F)c(-c2cccc3c2OCN(C(=O)c2c(Cl)cc(N4CCN(C5COC5)CC4)cc2Cl)C3)cc1N1C2CCC1COC2` [Compound 4-59, 4-[3-[2,6-Dichloro-4-[4-(oxetan-3-yl)piperazin-1-yl]benzoyl]-2,4-dihydro-1,3-benzoxazin-8-yl]-5-fluoro-2-(3-oxa-8-azabicyclo[3.2.1]octan-8-yl)benzoic acid] showed an EC50 of 12 nM.
Work on `O=C(O)c1cc(F)c(-c2cccc3c2OCN(C(=O)c2c(Cl)cc(N4CCOC4=O)cc2Cl)C3)cc1N1CCOCC1` [Compound 1-51, 4-[3-[2,6-Dichloro-4-(2-oxo-1,3-oxazolidin-3-yl)benzoyl]-2,4-dihydro-1,3-benzoxazin-8-yl]-5-fluoro-2-morpholin-4-ylbenzoic acid] yielded an EC50 of 10 nM.
In the case of `CN1CCn2ncc(-c3cc(Cl)c(C(=O)N4COc5c(cccc5-c5cc(N6C7CCC6COC7)c(C(=O)O)cc5F)C4)c(Cl)c3)c2C1` [Compound 3-2, 4-[3-[2,6-Dichloro-4-(5-methyl-6,7-dihydro-4H-pyrazolo[1,5-a]pyrazin-3-yl)benzoyl]-2,4-dihydro-1,3-benzoxazin-8-yl]-5-fluoro-2-(3-oxa-8-azabicyclo[3.2.1]octan-8-yl)benzoic acid], the EC50 is reported as 6.8 nM.
`O=C(O)c1cc(F)c(-c2cccc3c2OCN(C(=O)c2c(Cl)cc(N4CC5(C4)CN(C4COC4)C5)cc2Cl)C3)cc1N1C2CCC1COC2` [Compound 9-3, 4-[3-[2,6-Dichloro-4-[2-(oxetan-3-yl)-2,6-diazaspiro[3.3]heptan-6-yl]benzoyl]-2,4-dihydro-1,3-benzoxazin-8-yl]-5-fluoro-2-(3-oxa-8-azabicyclo[3.2.1]octan-8-yl)benzoic acid] showed an EC50 of 19 nM.
Work on `O=C(O)c1cc(F)c(-c2cccc3c2OCN(C(=O)c2c(Cl)cc(N4CCC5(CCOCC5)C4)cc2Cl)C3)cc1N1CCOCC1` [Compound 4-26, 4-[3-[2,6-Dichloro-4-(8-oxa-2-azaspiro[4.5]decan-2-yl)benzoyl]-2,4-dihydro-1,3-benzoxazin-8-yl]-5-fluoro-2-morpholin-4-ylbenzoic acid] yielded an EC50 of 8.2 nM.
For `CC[C@@H]1CN(C)CCN1c1cc(Cl)c(C(=O)N2COc3c(cccc3-c3cc(N4C5CCC4COC5)c(C(=O)O)cc3F)C2)c(Cl)c1` [Compound 19-18, 4-[3-[2,6-Dichloro-4-[(2R)-2-ethyl-4-methylpiperazin-1-yl]benzoyl]-2,4-dihydro-1,3-benzoxazin-8-yl]-5-fluoro-2-(3-oxa-8-azabicyclo[3.2.1]octan-8-yl)benzoic acid], the EC50 was 1.3 nM.
Work on `C[C@@H]1CN(c2cc(Cl)c(C(=O)N3COc4c(cccc4-c4cc(N5C6CCC5COC6)c(C(=O)O)cc4F)C3)c(Cl)c2)CCN1C1COC1` [Compound 10-8, 4-[3-[2,6-Dichloro-4-[(3R)-3-methyl-4-(oxetan-3-yl)piperazin-1-yl]benzoyl]-2,4-dihydro-1,3-benzoxazin-8-yl]-5-fluoro-2-(3-oxa-8-azabicyclo[3.2.1]octan-8-yl)benzoic acid] yielded an EC50 of 1.5 nM.
Work on `Cn1cc(-c2cc(Cl)c(C(=O)N3COc4c(cccc4-c4cc(N5C6CCC5COC6)c(C(=O)O)cc4F)C3)c(Cl)c2)cn1` [Compound 13-1, 4-[3-[2,6-Dichloro-4-(1-methylpyrazol-4-yl)benzoyl]-2,4-dihydro-1,3-benzoxazin-8-yl]-5-fluoro-2-(3-oxa-8-azabicyclo[3.2.1]octan-8-yl)benzoic acid] yielded an EC50 of 7.1 nM.
In the case of `CC(C)(C)OC(=O)N1CCN(c2cc(Cl)c(C(=O)N3COc4c(cccc4-c4cc(N5CCOCC5)c(C(=O)O)cc4F)C3)c(Cl)c2)CC1` [Compound 4-29, 4-[3-[2,6-Dichloro-4-[4-[(2-methylpropan-2-yl)oxycarbonyl]piperazin-1-yl]benzoyl]-2,4-dihydro-1,3-benzoxazin-8-yl]-5-fluoro-2-morpholin-4-ylbenzoic acid], the EC50 is reported as 2.1 nM.
`Cn1cc2c(n1)CN(c1cc(Cl)c(C(=O)N3COc4c(cccc4-c4cc(N5C6CCC5COC6)c(C(=O)O)cc4F)C3)c(Cl)c1)C2` [Compound 1-46, 4-[3-[2,6-Dichloro-4-(2-methyl-4,6-dihydropyrrolo[3,4-c]pyrazol-5-yl)benzoyl]-2,4-dihydro-1,3-benzoxazin-8-yl]-5-fluoro-2-(3-oxa-8-azabicyclo[3.2.1]octan-8-yl)benzoic acid] showed an EC50 of 1.9 nM.
With `COC1CC2(C1)CN(c1cc(Cl)c(C(=O)N3COc4c(cccc4-c4cc(N5C6CCC5COC6)c(C(=O)O)cc4F)C3)c3nc(C)n(C)c13)C2` [Compound 19-16, 4-[3-[5-Chloro-7-(6-methoxy-2-azaspiro[3.3]heptan-2-yl)-1,2-dimethylbenzimidazole-4-carbonyl]-2,4-dihydro-1,3-benzoxazin-8-yl]-5-fluoro-2-(3-oxa-8-azabicyclo[3.2.1]octan-8-yl)benzoic acid] the EC50 was 17 nM.
In the case of `CN1CCCC(Oc2cc(Cl)c(C(=O)N3COc4c(cccc4-c4cc(N5CCOCC5)c(C(=O)O)cc4F)C3)c(Cl)c2)C1` (centres unmarked) [Compound 4-53, 4-[3-[2,6-Dichloro-4-(1-methylpiperidin-3-yl)oxybenzoyl]-2,4-dihydro-1,3-benzoxazin-8-yl]-5-fluoro-2-morpholin-4-ylbenzoic acid], the EC50 is reported as 2.9 nM.
`CN1CC2CCCC(C1)N2c1cc(Cl)c(C(=O)N2COc3c(cccc3-c3cc(N4C5CCC4COC5)c(C(=O)O)cc3F)C2)c(Cl)c1` [Compound 1-36, 4-[3-[2,6-Dichloro-4-(3-methyl-3,9-diazabicyclo[3.3.1]nonan-9-yl)benzoyl]-2,4-dihydro-1,3-benzoxazin-8-yl]-5-fluoro-2-(3-oxa-8-azabicyclo[3.2.1]octan-8-yl)benzoic acid] showed an EC50 of 1.8 nM.
